US10759783B2, “Biaryl inhibitors of Bruton'S tyrosine kinase” (BIOGEN MA INC., priority 2013, dated 2020)

How the values were obtained:
BTK enzyme = target: T1, BTK enzyme (Homo sapiens, UniProt Q06187); test: In vitro BTK kinase assay: BTK-POLYGAT-LS assay; assay type: biochemical; conditions: ATP 10 μM, read-out: IC50 (10uMATP)
T1 construct: purchased Upstate 14-552
Summary of the method: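 Human BTK activity was measured with final 10 μM ATP and 100 nM polyGAT substrate in pH 7.5 Tris buffer with 10 mM MgCl2, DTT, Triton X-100 and casein.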

[1] = target: BTK (phospho-BTK) in human whole blood (Homo sapiens, UniProt Q06187); test: In vitro PD assay in human whole blood (pBTK assay)
Chain of BTK (phospho-BTK) in human whole blood (Q06187 whole entry): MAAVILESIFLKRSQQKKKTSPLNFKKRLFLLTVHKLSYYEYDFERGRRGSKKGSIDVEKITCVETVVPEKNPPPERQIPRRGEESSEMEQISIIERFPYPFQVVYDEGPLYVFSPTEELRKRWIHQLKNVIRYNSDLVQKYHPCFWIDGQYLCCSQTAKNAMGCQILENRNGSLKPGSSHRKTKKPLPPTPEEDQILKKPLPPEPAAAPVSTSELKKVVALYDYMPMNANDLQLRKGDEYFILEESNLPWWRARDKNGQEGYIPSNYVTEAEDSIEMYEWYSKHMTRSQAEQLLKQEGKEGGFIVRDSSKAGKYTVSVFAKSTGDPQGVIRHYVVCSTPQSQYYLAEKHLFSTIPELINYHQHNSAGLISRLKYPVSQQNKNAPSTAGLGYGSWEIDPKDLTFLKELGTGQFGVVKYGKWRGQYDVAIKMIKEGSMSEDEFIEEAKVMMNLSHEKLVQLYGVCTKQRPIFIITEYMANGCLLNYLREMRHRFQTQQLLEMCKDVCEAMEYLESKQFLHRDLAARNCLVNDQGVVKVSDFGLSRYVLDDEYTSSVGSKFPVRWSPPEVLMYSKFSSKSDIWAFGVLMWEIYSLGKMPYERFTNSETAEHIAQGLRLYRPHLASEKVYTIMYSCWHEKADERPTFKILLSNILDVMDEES

T1 sequence (Q06187 whole entry): as above

Structure (SMILES)	IC50 (BTK enzyme) [nM]	IC50 [1] [nM]
CN1CCC(n2cc(Nc3nccc(-c4ccc(CNC(=O)N5CC(OC(C)(C)C)C5)c(C(F)(F)F)c4)n3)cn2)CC1 [Example I-200, 3-(tert-butoxy)-N-(4-(2-((1-(1-methylpiperidin-4-yl)-1H-pyrazol-4-yl)amino)pyrimidin-4-yl)-2-(trifluoromethyl)benzyl)azetidine-1-carboxamide]	< 10	< 500
Cc1cc(-c2ccnc(Nc3cnn(C[C@@H](N)C(=O)O)c3)n2)ccc1CNC(=O)c1cnc(C(C)(C)C)s1 [Example I-132, (R)-2-amino-3-(4-((4-(4-((2-(tert-butyl)thiazole-5-carboxamido)methyl)-3-methylphenyl)pyrimidin-2-yl)amino)-1H-pyrazol-1-yl)propanoic acid]	< 10	1500 to 10000
CNC(=O)C(C)(C)n1cc(Nc2nccc(-c3ccc(CNC(=O)N4CC(OC(C)C)C4)c(C)c3)n2)cn1 [Example I-212, 3-isopropoxy-N-(2-methyl-4-(2-((1-(2-methyl-1-(methylamino)-1-oxopropan-2-yl)-1H-pyrazol-4-yl)amino)pyrimidin-4-yl)benzyl)azetidine-1-carboxamide]	< 10	< 500
Cc1cc(-c2cc(Nc3cc4n(n3)CCOC4)ncn2)ccc1CNC(=O)N1CC(OC(C)(C)C)C1 [Example I-287, 3-tert-butoxy-N-[[4-[6-(6,7-dihydro-4H-pyrazolo[5,1-c][1,4]oxazin-2-ylamino)pyrimidin-4-yl]-2-methyl-phenyl]methyl]azetidine-1-carboxamide]	< 10	< 500
CC(C)(C)OC1CN(C(=O)N[C@@H]2CCCCc3cc(-c4ccnc(Nc5cnn(CCO)c5)n4)ccc32)C1 [Example I-229, (R)-3-(tert-butoxy)-N-(2-(2-((1-(2-hydroxyethyl)-1H-pyrazol-4-yl)amino)-pyrimidin-4-yl)-6,7,8,9-tetrahydro-5H-benzo[7]annulen-5-yl)azetidine-1-carboxamide]	< 10	< 500
Cc1cc(-c2ccnc(Nc3cnn(C[C@H]4CNCCO4)c3)n2)ccc1CNC(=O)c1cnc(C(C)(C)C)s1 [Example I-128, (R)-2-(tert-butyl)-N-(2-methyl-4-(2-((1-(morpholin-2-ylmethyl)-1H-pyrazol-4-yl)amino)pyrimidin-4-yl)benzyl)thiazole-5-carboxamide]	< 10	< 500
Cc1cc(-c2cc(Nc3cc4n(n3)CC(C)N(C)C4)ncn2)ccc1CNC(=O)c1cnn(C(C)(C)C)c1 (stereo not shown) [Example I-280, 1-tert-butyl-N-[[4-[6-[(5,6-dimethyl-6,7-dihydro-4H-pyrazolo[1,5-a]pyrazin-2-yl)amino]pyrimidin-4-yl]-2-methyl-phenyl]methyl]pyrazole-4-carboxamide]	< 10	< 500
Cc1cc(-c2ccnc(Nc3cnn(C)c3)n2)ccc1CNC(=O)c1ccc(C(C)(C)C)cn1 [Example I-6, 5-(tert-butyl)-N-(2-methyl-4-(2-((1-methyl-1H-pyrazol-4-yl)amino)pyrimidin-4-yl)benzyl)picolinamide]	< 10	500 to 1500
Cc1cc(-c2cc(Nc3cc4n(n3)CC(=O)N(C)C4)ncn2)ccc1CNC(=O)N1CCC(C(C)(C)C)C1 (stereo not shown) [Example I-281, 3-tert-butyl-N-[[2-methyl-4-[6-[(5-methyl-6-oxo-4,7-dihydropyrazolo[1,5-a]pyrazin-2-yl)amino]pyrimidin-4-yl]phenyl]methyl]pyrrolidine-1-carboxamide]	< 10	< 500
Cn1cc(Nc2nccc(-c3ccc4c(c3)CCNCC4NC(=O)N3CC(OC(C)(C)C)C3)n2)cn1 (stereo not shown) [Example I-248, 3-(tert-butoxy)-N-(7-(2-((1-methyl-1H-pyrazol-4-yl)amino)pyrimidin-4-yl)-2,3,4,5-tetrahydro-H-benzo[d]azepin-1-yl)azetidine-1-carboxamide]	< 10	< 500
Cc1cc(-c2cc(Nc3cc4n(n3)CC(C)N(C)C4)ncn2)ccc1CNC(=O)c1cnc(C(C)(C)C)s1 (stereo not shown) [Example I-279, 2-tert-butyl-N-[[4-[6-[(5,6-dimethyl-6,7-dihydro-4H-pyrazolo[1,5-a]pyrazin-2-yl)amino]pyrimidin-4-yl]-2-methyl-phenyl]methyl]thiazole-5-carboxamide]	< 10	< 500
Cc1cc(-c2cc(Nc3cc4n(n3)CCNC4)ncn2)ccc1CNC(=O)c1cnc(C(C)(C)C)s1 [Example I-270, 2-tert-butyl-N-[[2-methyl-4-[6-(4,5,6,7-tetrahydropyrazolo[1,5-a]pyrazin-2-ylamino)pyrimidin-4-yl]phenyl]methyl]thiazole-5-carboxamide]	< 10	< 500
CC(C)(O)Cn1cc(Nc2nccc(-c3ccc4c(c3)CCCCC4NC(=O)N3CC(OC(C)(C)C)C3)n2)cn1 (stereo not shown) [Example I-337, 3-tert-butoxy-N-[2-[2-[[1-(2-hydroxy-2-methyl-propyl)pyrazol-4-yl]amino]pyrimidin-4-yl]-6,7,8,9-tetrahydro-5H-benzo[7]annulen-5-yl]azetidine-1-carboxamide]	< 10	< 500
Cc1cc(-c2cc(Nc3cc4n(n3)CCCNC4)ncn2)ccc1CNC(=O)N1CC(OC(C)C)C1 [Example I-273, 3-isopropoxy-N-[[2-methyl-4-[6-(5,6,7,8-tetrahydro-4H-pyrazolo[1,5-a][1,4]diazepin-2-ylamino)pyrimidin-4-yl]phenyl]methyl]azetidine-1-carboxamide]	< 10	< 500
Cn1cc(Nc2nccc(-c3ccc(CNC(=O)c4cnc(C(C)(C)C)s4)c(C(F)(F)F)c3)n2)cn1 [Example I-116, 2-(tert-butyl)-N-(4-(2-((1-methyl-1H-pyrazol-4-yl)amino)pyrimidin-4-yl)-2-(trifluoromethyl)benzyl)thiazole-5-carboxamide]	< 10	500 to 1500

Second part, the compound after the results:

IC50 (BTK enzyme) [nM]	IC50 [1] [nM]	Structure (SMILES)
< 10	< 500	CC(C)OC1CN(C(=O)NC2CCCCc3cc(-c4ccnc(Nc5cnn([C@@H]6CCOC6)c5)n4)ccc32)C1 (stereo partly drawn) [Example I-333, 3-isopropoxy-N-[2-[2-[[1-[(3R)-tetrahydrofuran-3-yl]pyrazol-4-yl]amino]pyrimidin-4-yl]-6,7,8,9-tetrahydro-5H-benzo[7]annulen-5-yl]azetidine-1-carboxamide]
< 10	< 500	CC(C)OC1CN(C(=O)NC2CCN(CC(F)(F)F)Cc3cc(-c4ccnc(Nc5cnn(C)c5)n4)ccc32)C1 (stereo not shown) [Example I-187, 3-isopropoxy-N-(8-(2-((1-methyl-1H-pyrazol-4-yl)amino)pyrimidin-4-yl)-2-(2,2,2-trifluoroethyl)-2,3,4,5-tetrahydro-1H-benzo[c]azepin-5-yl)azetidine-1-carboxamide]
< 10	< 500	CC(C)C1CCN(C(=O)NC2CCCCc3cc(-c4ccnc(Nc5cnn([C@H]6CCOC6)c5)n4)ccc32)C1 (stereo partly drawn) [Example I-345, 3-isopropyl-N-[2-[2-[[1-[(3S)-tetrahydrofuran-3-yl]pyrazol-4-yl]amino]pyrimidin-4-yl]-6,7,8,9-tetrahydro-5H-benzo[7]annulen-5-yl]pyrrolidine-1-carboxamide]
< 10	< 500	CC(C)OC1CN(C(=O)NC2CCCCc3cc(-c4ccnc(Nc5cnn(CCO)c5)n4)ccc32)C1 (stereo not shown) [Example I-168, N-(2-(2-((1-(2-hydroxyethyl)-1H-pyrazol-4-yl)amino)pyrimidin-4-yl)-6,7,8,9-tetrahydro-5H-benzo[7]annulen-5-yl)-3-isopropoxyazetidine-1-carboxamide]
< 10	< 500	CCOC1CN(C(=O)NC2CCCCc3cc(-c4ccnc(Nc5cnn(C)c5)n4)ccc32)C1 (stereo not shown) [Example I-331, 3-ethoxy-N-[2-[2-[(1-methylpyrazol-4-yl)amino]pyrimidin-4-yl]-6,7,8,9-tetrahydro-5H-benzo[7]annulen-5-yl]azetidine-1-carboxamide]
< 10	< 500	CC(C)OC1CN(C(=O)NCc2ccc(-c3ccnc(Nc4cnn(C(C)C)c4)n3)cc2C(F)(F)F)C1 [Example I-299, 3-isopropoxy-N-[[4-[2-[(1-isopropylpyrazol-4-yl)amino]pyrimidin-4-yl]-2-(trifluoromethyl)phenyl]methyl]azetidine-1-carboxamide]
< 10	< 500	COCCn1cc(Nc2nccc(-c3ccc(CNC(=O)N4CCC(C(C)C)C4)c(C(F)(F)F)c3)n2)cn1 (stereo not shown) [Example I-317, 3-isopropyl-N-[[4-[2-[[1-(2-methoxyethyl)pyrazol-4-yl]amino]pyrimidin-4-yl]-2-(trifluoromethyl)phenyl]methyl]pyrrolidine-1-carboxamide]
< 10	< 500	CCCC1CN(C(=O)NCc2ccc(-c3ccnc(Nc4cnn(C)c4)n3)cc2C)C1 [Example I-263, N-[[2-methyl-4-[2-[(1-methylpyrazol-4-yl)amino]pyrimidin-4-yl]phenyl]methyl]-3-propyl-azetidine-1-carboxamide]
< 10	< 500	COCCn1cc(Nc2nccc(-c3ccc4c(c3)CCCC[C@H]4NC(=O)N3CC(OC(C)C)C3)n2)cn1 [Example I-227, (R)-3-isopropoxy-N-(2-(2-((1-(2-methoxyethyl)-1H-pyrazol-4-yl)amino)-pyrimidin-4-yl)-6,7,8,9-tetrahydro-5H-benzo[7]annulen-5-yl)azetidine-1-carboxamide]
< 10	< 500	COCCn1cc(Nc2nccc(-c3ccc(CNC(=O)N4CCC(C(C)(C)C)C4)c(C)c3)n2)cn1 (stereo not shown) [Example I-303, 3-tert-butyl-N-[[4-[2-[[1-(2-methoxyethyl)pyrazol-4-yl]amino]pyrimidin-4-yl]-2-methyl-phenyl]methyl]pyrrolidine-1-carboxamide]
< 10	< 500	Cc1cc(-c2ccnc(Nc3cnn(C)c3)n2)ccc1CNC(=O)N1CCC(C(C)(C)C)C1 (stereo not shown) [Example I-224, 3-(tert-butyl)-N-(2-methyl-4-(2-((1-methyl-1H-pyrazol-4-yl)amino)pyrimidin-4-yl)benzyl)pyrrolidine-1-carboxamide]
